Our source for the TGI and GI50 values is PubChem BioAssay (NCI).

What all share (test): NCI tumour cell line growth inhibition, 48 h
Experiment [1] deals with OVCAR-5 ovarian.
Experiment [2] concerns A498 renal.
Experiment [3] concerns HOP-92 NSCLC.
The subject of experiment [4] is HL-60(TB) leukemia.
The subject of experiment [5] is HCT-116 colon.
Experiment [6] has as its system MDA-N.
For experiment [7], the system named is OVCAR-8 ovarian.
In experiment [8] the test system is CAKI-1 renal.
Experiment [9] deals with SR leukemia.

The structures appear in SMILES notation.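 Interpolation was linear, between the two tested concentrations surrounding the appropriate level; five concentrations were tested over 48 hours in 96-well plates. Here, GI50 denotes the concentration required for 50% inhibition of growth. TGI is the concentration that stops growth completely.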

As for `COC(=O)C1(C(=O)OC)CC2=C(S(=O)(=O)c3ccccc3)C[C@@H](C#N)[C@H]2C1`, the TGI in [1], in experiment [2], in experiment [3], in [4], in experiment [5] and in experiment [6] was more than 100 µM throughout. Moreover, the TGI in experiment [7] and in [8] was more than 100 µM in each case.
As for `CC1(C)CC(=O)C2=C(C1)OC1=C(CC(C)(C)CC1=O)C2c1ccccc1Cl` (stereo not given), the TGI in experiment [1], in [2], in experiment [3], in experiment [4], in experiment [5] and in experiment [7] was more than 100 µM in each case. The TGI in [9] and in [8] was more than 100 µM each time.
Turning to `O=c1n(CCO)nc2n1CCCN2`, the TGI in experiment [1], in experiment [3], in experiment [4], in [5], in experiment [6] and in [7] was more than 100 µM throughout. This compound returned a TGI in experiment [9] of more than 100 µM.
As for `N#Cc1c(C#N)c(-c2ccco2)n(/N=C/c2ccco2)c1N`, the TGI is more than 100 µM in [1]; more than 100 µM in experiment [2]; 61.2 µM in [3]; more than 100 µM in experiment [4]; more than 100 µM in experiment [5]; 66.2 µM in experiment [7]. The TGI in [9] and in experiment [8] was more than 100 µM throughout.
Consider `O=C(CSCC(=O)N/N=C\c1cc(Br)cc(Br)c1O)N/N=C\c1cc(Br)cc(Br)c1O`, for which the TGI in experiment [1] is more than 100 µM; in experiment [3] it was 79 µM; in experiment [5] it was more than 100 µM; in [7], 68 µM; in [9] it was 42 µM; in experiment [8], 73 µM.
`COc1ccc2c(c1)CCC1C2CCC2(C)C1CC[C@@]2(O)CNC(=O)/C=C/c1ccc(O)c(O)c1` (stereo not given in full): the GI50 in experiment [1] was 16.5 µM; in experiment [2], 18.8 µM; in [3], 2.23 µM; in experiment [4], 0.595 µM; in experiment [5] it was 2.95 µM; in experiment [7], 4.13 µM. For the same compound, the GI50 was 20.1 µM in [9] and 2.68 µM in [8]. Moreover, the TGI in experiment [1] is more than 100 µM; in [2], 39.8 µM; in experiment [3], 14.7 µM; in experiment [4] it was 3.97 µM; in [5], 19.2 µM; in experiment [7], more than 100 µM. Further, the TGI in [9] is 59.7 µM; in [8], more than 100 µM.
Take `Clc1ccc(CCn2ccc3ccccc32)c(Cl)c1`: the TGI in [1], in [2], in experiment [3], in experiment [4], in experiment [5] and in experiment [7] was more than 100 µM each time. Also, the TGI in experiment [9] and in [8] was more than 100 µM throughout.
In the case of `CCC1(CC)C(=O)N(C(=O)c2ccc(Cl)cc2)N(C(=O)c2ccccc2Cl)C1=O`, the TGI in experiment [1], in [4], in experiment [5], in experiment [6], in [7] and in experiment [9] was more than 100 µM throughout. The same compound registered a TGI in [8] of more than 100 µM.
Take `CCCCCCc1cc2cc(C(=O)Nc3cccc(C(F)(F)F)c3)c(=N)oc2cc1O`: the TGI in [1] was 69.7 µM; in [2], 14 µM; in [3] it was 2.14 µM; in [4], 6.98 µM; in experiment [5], 4.57 µM; in experiment [7], 3.72 µM. The TGI in experiment [9] was 4.37 µM; in experiment [8] it was 11.5 µM.
For `CC1=CC(=O)C[C@]2(C)[C@@H](O)CC(C(C)CO)C[C@@H]12` (stereo not given in full), the TGI in experiment [1], in [2], in experiment [3], in experiment [4], in experiment [5] and in experiment [6] was more than 100 µM each time. For the same compound, the TGI in experiment [7] and in [8] was more than 100 µM each time.
On to `Nc1cc(N)c2nc(-c3ccccc3)c(Sc3ccc(F)cc3)nc2c1`, for which the GI50 in experiment [1] was 19 µM; in experiment [2], 27.5 µM; in experiment [3] it was 22.9 µM; in experiment [4], 39.3 µM; in experiment [5], 14.7 µM; in experiment [7], 16.7 µM. The results for the GI50 in [9] and in experiment [8] were 35.2 µM and 18.1 µM, respectively. Moreover, the TGI in experiment [1] was 46.1 µM; in experiment [2], 46 µM; in experiment [3], 54.8 µM; in [4], more than 100 µM; in experiment [5] it was 28.3 µM; in experiment [7], 34.9 µM. Moreover, the values for the TGI in [9] and in [8] were more than 100 µM and 36.6 µM, respectively.
For `CC(C)(C)OC(=O)NCCNC(=O)OCc1ccccc1`, the TGI in [1], in [3], in experiment [6], in experiment [7], in [9] and in experiment [8] was more than 100 µM each time.
As to `CN(C)CCCN1c2ccc3ccccc3c2Sc2cccc(Cl)c21`, the TGI in experiment [1] was 17.7 µM; in [2] it was 25.8 µM; in experiment [3], 9.1 µM; in [4] it was 3.99 µM; in experiment [5], 14 µM; in [6], 5.51 µM. In addition, the TGI in experiment [7] was 18 µM; in [8] it was 16.6 µM.
For the compound `CN(C)CCCn1c2c(c3ccncc3c1=O)C(=O)c1ccccc1-2`, the GI50 in experiment [1] was 1.82 µM; in experiment [2], 2.15 µM; in experiment [3], 0.155 µM; in experiment [4] it was 0.858 µM; in experiment [5] it was 0.382 µM; in experiment [7], 0.616 µM. For the same compound, the GI50 in experiment [9] was 0.313 µM; in experiment [8], 0.572 µM. The TGI in experiment [1] is 9.25 µM; in [2], 20 µM; in experiment [3], 2.39 µM; in [4] it was 8.66 µM; in experiment [5], 21.8 µM; in experiment [7], 15.3 µM. Moreover, the TGI in experiment [9] came to 11.9 µM; in experiment [8] it was 5.53 µM.
